Measured values taken from patent US20250034216A1, “STEREOSELECTIVE COVALENT LIGANDS FOR ONCOGENIC AND IMMUNOLOGICAL PROTEINS” (The Scripps Research Institute, priority 2021, published 2025).

Columns and labels:
Test in all cases: IA-DTB cysteine engagement
Assay type in all cases: binding
[1] = target: T1, PDP1_C149 (Homo sapiens, UniProt Q9P0J1); details: 22Rv1 cells, 20 μM probe, 1 h, relative to DMSO
T1 construct: endogenous in cells; host or cells: 22Rv1
T1 sequence (Q9P0J1 72-537): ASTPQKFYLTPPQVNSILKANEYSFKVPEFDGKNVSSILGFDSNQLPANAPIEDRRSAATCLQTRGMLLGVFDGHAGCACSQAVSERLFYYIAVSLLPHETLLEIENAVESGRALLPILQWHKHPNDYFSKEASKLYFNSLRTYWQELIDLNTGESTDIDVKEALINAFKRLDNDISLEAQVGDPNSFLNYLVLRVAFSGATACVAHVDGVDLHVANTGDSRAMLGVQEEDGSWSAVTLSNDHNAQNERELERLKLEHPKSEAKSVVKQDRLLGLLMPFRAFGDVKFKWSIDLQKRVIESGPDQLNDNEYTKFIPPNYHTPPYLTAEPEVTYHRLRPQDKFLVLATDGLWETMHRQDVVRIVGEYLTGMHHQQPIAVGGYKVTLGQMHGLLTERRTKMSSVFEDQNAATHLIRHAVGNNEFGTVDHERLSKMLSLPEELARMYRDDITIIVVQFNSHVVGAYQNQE
Method in brief: (§1)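 Cells were treated in situ with electrophilic probes, then lysed, and the lysates (2 mg/mL protein) were labeled with IA-DTB for 1 h at ambient temperature. After reduction, alkylation and trypsin digestion, labeled peptides were streptavidin-enriched, TMT-labeled and fractionated. Engagement ratios are probe vs DMSO reporter intensities, averaged across replicates.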

[2] = target: T2, PTGR1_C239 (Homo sapiens, UniProt Q14914); details: 22Rv1 cells, relative to DMSO; for % engagement PTGR1_C239: 20 μM probe, 1 h; for % engagement PTGR1_239: 5 μM probe, 1 h (FIG. 5B)
T2 construct: endogenous in cells; host or cells: 22Rv1
Method in brief: as §1

[3] = target: T3, HARS2_C173 (Homo sapiens, UniProt P49590); details: 22Rv1 cells, 20 μM probe, 1 h, relative to DMSO
T3 construct: endogenous in cells; host or cells: 22Rv1
T3 sequence (P49590 34-506): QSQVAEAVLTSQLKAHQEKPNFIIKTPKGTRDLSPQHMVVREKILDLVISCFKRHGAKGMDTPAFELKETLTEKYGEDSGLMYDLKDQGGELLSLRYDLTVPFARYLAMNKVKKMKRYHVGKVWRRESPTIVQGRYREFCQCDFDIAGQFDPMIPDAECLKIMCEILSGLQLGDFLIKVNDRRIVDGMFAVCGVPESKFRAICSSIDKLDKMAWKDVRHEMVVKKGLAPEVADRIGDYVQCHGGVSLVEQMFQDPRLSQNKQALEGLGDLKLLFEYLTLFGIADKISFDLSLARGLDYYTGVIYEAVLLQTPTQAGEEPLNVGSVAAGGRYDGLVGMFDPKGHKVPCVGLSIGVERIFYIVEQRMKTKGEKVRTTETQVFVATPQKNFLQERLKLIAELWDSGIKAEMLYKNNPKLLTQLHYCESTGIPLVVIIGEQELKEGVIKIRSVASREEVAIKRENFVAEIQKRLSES
Method in brief: as §1

[4] = target: T4, GPAT4_C325 (Homo sapiens, UniProt Q86UL3); details: 22Rv1 cells, 20 μM probe, 1 h, relative to DMSO
T4 construct: endogenous in cells; host or cells: 22Rv1
T4 sequence (Q86UL3 38-456): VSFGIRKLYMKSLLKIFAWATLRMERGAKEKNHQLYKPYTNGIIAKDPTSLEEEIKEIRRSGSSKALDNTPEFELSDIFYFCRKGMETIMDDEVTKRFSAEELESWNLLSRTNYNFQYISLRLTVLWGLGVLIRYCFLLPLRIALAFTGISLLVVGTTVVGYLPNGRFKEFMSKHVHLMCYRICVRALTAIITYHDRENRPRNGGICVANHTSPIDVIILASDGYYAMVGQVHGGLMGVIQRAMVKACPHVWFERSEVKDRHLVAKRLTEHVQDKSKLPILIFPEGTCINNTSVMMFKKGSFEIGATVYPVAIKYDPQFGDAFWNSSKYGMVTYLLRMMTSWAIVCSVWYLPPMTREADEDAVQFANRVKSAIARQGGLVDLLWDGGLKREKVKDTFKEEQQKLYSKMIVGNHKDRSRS
Method in brief: as §1

T2 sequence (Q14914 whole entry): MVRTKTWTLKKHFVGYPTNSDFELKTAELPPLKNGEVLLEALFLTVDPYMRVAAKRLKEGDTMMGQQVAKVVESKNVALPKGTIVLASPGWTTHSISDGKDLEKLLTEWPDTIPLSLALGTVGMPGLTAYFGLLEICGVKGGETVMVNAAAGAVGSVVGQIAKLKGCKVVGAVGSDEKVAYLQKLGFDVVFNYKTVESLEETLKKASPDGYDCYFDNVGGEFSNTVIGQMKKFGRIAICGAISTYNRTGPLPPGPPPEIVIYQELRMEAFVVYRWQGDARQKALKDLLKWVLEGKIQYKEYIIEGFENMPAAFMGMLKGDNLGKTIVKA

% engagement PDP1_C149 [1]	% engagement PTGR1_C239 [2]	% engagement HARS2_C173 [3]	% engagement GPAT4_C325 [4]	% engagement PTGR1_239 [2]	SMILES
67%	75%	84.75%	83.25%	–	C=CC(=O)N1C[C@@H](c2ccc(Br)cc2)[C@H]1C(=O)Nc1cccc2cccnc12 [MY-1A, (2S,3R)-1-acryloyl-3-(4-bromophenyl)-N-(quinolin-8-yl)azetidine-2-carboxamide]
37.25%	79%	63.75%	80%	81.33%	C=CC(=O)N1C[C@H](c2ccc(Br)cc2)[C@@H]1C(=O)Nc1cccc2cccnc12 [MY-1B, (2R,3S)-1-acryloyl-3-(4-bromophenyl)-N-(quinolin-8-yl)azetidine-2-carboxamide]
37.25%	−16.5%	35.75%	93.75%	–	C=CC(=O)N1C[C@H](c2ccc(Br)cc2)[C@H]1C(=O)Nc1cccc2cccnc12 [MY-3B, (2S,3S)-1-acryloyl-3-(4-bromophenyl)-N-(quinolin-8-yl)azetidine-2-carboxamide]
–	–	–	–	−4.50%	CC#CC(=O)N1C[C@H](c2ccc(Br)cc2)[C@@H]1C(=O)Nc1cccc2cccnc12 [MY-45B, (2R,3S)-3-(4-bromophenyl)-1-(but-2-ynoyl)-N-(quinolin-8-yl)azetidine-2-carboxamide]
19.25%	−4%	35.25%	67.25%	–	C=CC(=O)N1C[C@H](c2ccc(Br)cc2)[C@H]1C(=O)Nc1cccc2cccnc12 [MY-3A, (2S,3S)-1-acryloyl-3-(4-bromophenyl)-N-(quinolin-8-yl)azetidine-2-carboxamide]
